# Measurements published in publication PMC7841778 (ACS Omega, 2021).
# Legend:
# [1] = biological target: T1, human pancreatic α-amylase (HPA) (Homo sapiens, UniProt P04746); experiment: ITC; format: binding
# T1 sequence (P04746 16-511): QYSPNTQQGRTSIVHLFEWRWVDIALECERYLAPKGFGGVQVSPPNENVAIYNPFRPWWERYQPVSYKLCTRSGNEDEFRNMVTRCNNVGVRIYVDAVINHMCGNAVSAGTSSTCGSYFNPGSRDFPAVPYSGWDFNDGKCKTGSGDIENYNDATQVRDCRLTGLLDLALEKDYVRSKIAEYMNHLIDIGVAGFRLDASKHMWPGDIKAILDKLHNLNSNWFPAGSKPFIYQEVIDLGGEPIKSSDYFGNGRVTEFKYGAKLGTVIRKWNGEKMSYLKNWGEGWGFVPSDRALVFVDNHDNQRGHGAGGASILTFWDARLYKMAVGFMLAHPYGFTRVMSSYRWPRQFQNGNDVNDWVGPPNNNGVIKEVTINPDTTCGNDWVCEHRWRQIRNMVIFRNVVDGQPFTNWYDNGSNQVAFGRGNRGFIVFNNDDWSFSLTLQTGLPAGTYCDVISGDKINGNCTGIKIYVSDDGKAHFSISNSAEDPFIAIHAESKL
# [2] = biological target: T1, human pancreatic α-amylase (HPA); experiment: hydrolysis kinetics, KM; format: biochemical; details: read-out: KM ^b
Kd [1],Km [2],SMILES
1970 nM,–,"C=CCc1ccc(Oc2cc(CC=C)cc(OC)c2O)c(OC)c1 [DDEB, dehydrodieugenol B]"
–,132 ± 6.62 µM,OC[C@H]1O[C@H](O[C@H]2[C@H](O)[C@@H](O)[C@@H](O[C@H]3[C@H](O)[C@@H](O)[C@@H](O[C@H]4[C@H](O)[C@@H](O)[C@@H](O[C@H]5[C@H](O)[C@@H](O)C(O)O[C@@H]5CO)O[C@@H]4CO)O[C@@H]3CO)O[C@@H]2CO)[C@H](O)[C@@H](O)[C@@H]1O (some centres unmarked) [maltopentaose]
